Results taken from patent US9456601B2, “Pesticides based on vicinal diols” (priority 2001, dated 2016).
Read-outs that look alike come from different tables or passages of the source.

Assays:
[1] = system: human body louse (Pediculus humanus); assay: LC50 tests against the human body louse; settings: for Potency index: LC50 value compared with that of 1,2-decanediol (=100%); for LC50: read-out: LC50 value; for LC50 / LC50 value: tests against lice (Pediculus humanus)
[2] = system: house dust mite Dermatophagoides pteronyssinus; assay: House dust mite immersion test, mortality; type: in vivo
Text: The utility of the vicinal diols is further illustrated by the results of experiments against the house dust mite Dermatophagoides pteronyssinus according to accepted industry protocols. Mites were sealed in a cotton envelope and briefly immersed (5 seconds) in dilute solutions (2.5%) of selected diols. The mites were examined one hour after immersion and mortality calculated. The results are shown in Table 3 below with comparative results for a proprietary carpet shampoo, permethrin insecticide and water (as controls).

house flies = type: in vivo, Musca domestica
Text: A further example of the use of the compounds of the present invention is shown by testing decane-1,2-diol against house flies in a standard industry protocol for insecticides.

[3] = system: human body louse (Pediculus humanus); settings: in vivo
lice [4] = assay: Immersion of lice in test formulations, mortality; type: in vivo; settings: immersed for a few seconds and blotted dry
Text: (§1) Vicinal diols are readily formulated in aqueous systems using non-toxic co-solvents such as isopropyl alcohol or by use of surfactants such as Tween®. This makes them eminently suitable for inclusion into many household or industrial, pesticidal or cleansing products. In particular they can be incorporated into pharmaceutical preparations for use on humans or animals. The treatment of lice and cockroaches with formulations containing 1,2-octanediol or 1,2-decanediol is tabulated in Table 4 along with control results for the solvent systems employed. In a procedure following standard industry protocols the subject animals were immersed for a few seconds in the test formulations and blotted dry. Mortality after 24 hrs was measured for the lice, after 1 hr for the cockroaches.

cockroaches = assay: Immersion of cockroaches in test formulations, mortality; type: in vivo; settings: immersed for a few seconds and blotted dry
Text: as §1

lice [5] = assay: Egg-laying activity of treated lice; type: in vivo; settings: FIG. 2
Text: FIG. 2 is a further graph illustrating a relationship between diol chain length and egg-laying activity of treated lice.

SMILES	Potency index [1]	LC50 [1]	LC50 value [1]	further results
CCCCCCCC(O)CCO (stereo not drawn) [1,3-Decanediol]	30%	40 mM	–	–
CCCCC(O)CO (stereo not drawn) [1,2-Hexanediol]	6%	–	>200 mmol	–
CCCCCCCCC(O)CO (racemic) [1,2-Decanediol]	100%	12 mM	–	Mortality ([2]; in vivo): 95%; Mortality (house flies; in vivo): More than 80%; pediculicidal activity (in words) ([1]; against lice): significantly superior to 1,3-decanediol
CCCCCCCCCCO [1-Decanol]	32%	35 mM	–	–
CCCCCCCC(CC)CCO (stereo not drawn) [3-Ethyl-1-decanol]	20%	62 mM	–	–
CCCCCC(O)CCO (stereo not drawn) [1,3-Octanediol]	Not effective	–	>400 mmol	–
CCCC(O)C(O)CO (stereo not drawn) [1,2,3-Hexanetriol]	Not effective	–	Not calculable	–
CCCC(O)C(CC)CO (stereo not drawn) [2-Ethyl-1,3-hexanediol]	20%	–	–	LC50 [3]: 60 mM
CCCCCCCC(CC)C(O)CO (stereo not drawn) [3-Ethyl-1,2-decanediol]	Not effective	–	Not calculable	–
CCCCCCC(O)CCC (stereo not drawn) [4-Decanol]	6%	–	183 mmol	–
OCCCCCCCCCCO [decane-1,10-diol]	–	–	–	insecticidal activity (in words) (house flies; house flies): did not exhibit insecticidal activity
OCCCCCCO [1,6-Hexanediol]	Not effective	–	–	LC50 value [3]: Not calculable
CCCCC(CC)CO (stereo not drawn) [2-Ethyl-1-hexanol]	4%	–	–	LC50 value [3]: 300 mmol
CC(O)CCO (stereo not drawn) [1,3-Butanediol]	Not effective	–	>2000 mmol	–
OCCCCC(O)CO (stereo not drawn) [1,2,6-Hexanetriol]	Not effective	–	Not calculable	–
C=CCCCCCCCCO [9-Decene-1-ol]	36%	33 mM	–	–
CC(O)CCCCO (stereo not drawn) [1,5-Hexanediol]	Not effective	–	Not calculable	–
CCC(O)CO (stereo not drawn) [1,2-Butanediol]	Not effective	–	>700 mmol	–
CCCCCCCCC(CCCCCCC)C(O)CO (stereo not drawn) [3-Octyl-1,2-decanediol]	12%	97 mM	–	–
CC1(C)C(C=C(Cl)Cl)C1C(=O)OCc1cccc(Oc2ccccc2)c1 (stereo not drawn) [0.25% Permethrin, Permethrin]	–	–	–	Mortality ([2]; mites in cotton envelope immersed 5 seconds, diols as 2.5% solutions, examined one hour after immersion): 100%; Lice mortality after 24 hr (lice [4]): 100%; Cockroach mortality after 1 hr (cockroaches): 100%
CC(O)CCC(C)O (stereo not drawn) [2,5-Hexanediol]	Not effective	–	Not calculable	–
CCCCCCCCC(C)O (stereo not drawn) [2-Decanol]	34%	37 mM	–	–
CCCCCCC(O)CO (stereo not drawn) [1,2-Octanediol]	30%	40 mM	–	Mortality ([2]; in vivo): 65%; prevention of egg laying (in words) (lice [5]): especially efficacious in the prevention of egg laying
